Data set [1] concerns Lactobacillus johnsonii (CNCM I-1225). Briefly: Gastric small-intestinal model (TIM), hydrolysis of 5-CQA during simulated digestion. Particulars: 6 h digestion, with addition of L. johnsonii.
Experimental: The gastric small-intestinal model, TIM-1, comprises four connected compartments that represent the stomach, duodenum, jejunum and ileum, respectively. Each compartment consists of a glass outer wall with a flexible inner wall. The flexible wall is surrounded by water at 37° C. to squeeze the walls, which ensures mixing of the food with the secreted enzymes by peristaltic movements in the gastro-intestinal tract.
The experiments in the model were performed under average physiological conditions of the gastro-intestinal tract. During the experiments, the temperature was kept at 37° C. and salivary, gastric, biliary, and pancreatic secretions were simulated. The digestion process in the model was monitored for 6 h. During the first 3.5 h, the gastric content was gradually delivered into the small intestine “pyloric valve”. […]
4.5 g of NESCAFE PROTECT® (a co-extract of green and roasted coffee beans) were dissolved in 310 ml acetate buffer (20 mM, pH 6.5). […] After 6 h experiment, the residues from the compartments of the stomach, duodenum, jejunum and ileum were analysed to calculate the mass balance of chlorogenic acids. […] After 6 h, the residues from the compartments of the stomach, duodenum, jejunum and ileum were analysed by HPLC to calculate the mass balance of 5-caffeoyl quinic acid.
The test system of data set [2] is Bifidobacterium lactis BB12 (CNCM I-3446). Briefly: Treatment of coffee extracts with bacteria cells (B. lactis), HPLC. As to the method:
(§1) Coffee samples were diluted to 1% w/w and analyzed by RP-HPLC on a CC 250/4 Nucleosil 100-5-C18 column (Macherey-Nagel). The eluent system was Millipore water, 0.1% TFA and CH3CN at a flow rate of 1 mL/min. The method allowed the simultaneous determination of caffeoyl quinic acids (CQA), feruloyl quinic acids (FQA), di-caffeoyl quinic acids (diCQA), feruloyl quinic acid-lactones, caffeic acid (CA) and ferulic acid (FA) (absorbance at 325 nm) using external standard calibration curves. Results were expressed relative to the reference at time 0 (t0) or to the reference at the same time without bacteria.
(§2) Tested strains were harvested (centrifugation at 5000 g for 10 min) after having well reached stationary phase, corresponding to 16 hours of incubation in culture medium at 37° C. in anaerobic atmosphere without agitation. For a first activation of the strains, frozen stock cultures were inoculated in fresh media and grown overnight. This pre-culture was used to inoculate the culture.
(§3) After culture of bacteria and centrifugation, the pellets were resuspended in phosphate buffer (pH 7.0) at a concentration of 0.61 g/ml. To 200 μl of this cells preparation, 800 μl of a coffee solution (3%) was added and the mixture was incubated at 37° C. for 4 h, 16 h and 24 h.

The test system of data set [3] is Lactobacillus johnsonii (CNCM I-1225) fresh cells. In words: Treatment of NESCAFE PROTECT with L. johnsonii fresh cells, HPLC of chlorogenic and phenolic acids. The procedure:
(§4) Cells of L. johnsonii (CNCM I-1225) were grown (7.0 E08 cfu/ml) and centrifuged (5000 g, 10 min), the pellets were resuspended in phosphate buffer (50 mM, pH 7.0) at a concentration of 0.61 g/ml. […] Samples were withdrawn at different reaction times, centrifuged (3000 g, 5 min) and filtered through 0.45 μm pore size syringe filters (Millipore SLHA 025 BS) and analysed by HPLC.
A reaction control was run in parallel under the same reaction conditions but without bacteria.
as §1

The subject of data set [4] is Lactobacillus johnsonii (CNCM I-1225) extract (lysed cells). Briefly: Treatment of NESCAFE PROTECT with L. johnsonii extract (lysed cells), HPLC. It counts as biochemical. As to the method: as §4, with “g/ml. The cells were then lysed using the glass-beads method. 600 μl of cells preparation were put in screw-cap tubes and 600 μl of glass-beads were added at 0° C. The tubes were then put into a Mini-Beadbeater for 1 min of intense shaking, cooled in ice, and put another 1 min in the Mini-Beadbeater.” for “g/ml.”, “min),” for “min) and”
as §1

The test system of data set [5] is spray-dried preparation of Lactobacillus johnsonii (CNCM I-1225). Briefly: Treatment of green coffee extract with spray-dried preparation of L. johnsonii, HPLC. As to the method:
30 mg of a dried green coffee extract was dissolved in 1 ml phosphate buffer (50 mM, pH 7.0) or in 1 ml water. To this solution, 10 mg of a spray-dried preparation of Lactobacillus johnsonii (3.3 E9 cfu/g) was added. The mixture was then incubated at 37° C. and samples were withdrawn at different reaction times. After centrifugation (3000 g, 5 min) and filtration (0.45 μm pore size syringe filters, Millipore SLHA 025 BS) the samples were analysed by HPLC.
as §1

Data set [6] shares this test system. In words: Treatment of NESCAFE PROTECT with spray-dried preparation of L. johnsonii, HPLC. As to the method: To this solution, 10 mg of a spray-dried preparation of Lactobacillus johnsonii (CNCM I-1225) (3.3 E9 cfu/g) were added. The mixture was then incubated at 37° C. and samples were withdrawn at different reaction times. After centrifugation (3000 g, 5 min) and filtration (0.45 μm pore size syringe filters, Millipore SLHA 025 BS) the samples were analysed by HPLC.
as §1

Data set [7] has as its system concentrated preparation of Lactobacillus johnsonii (CNCM I-1225). In words: Treatment of NESCAFE with concentrated preparation of L. johnsonii, HPLC. As to the method: 400 mg of NESCAFE SPECIAL FILTRE® (a dried extract of roasted coffee beans) were dissolved in 1 ml of boiling water and the solution was cooled to 37° C. at room temperature. To 250 μl of this coffee solution, different amounts of concentrated preparation of Lactobacillus johnsonii (50 μl, 100 μl, 350 μl, 750 μl) were added and the volume was adjusted to 1 ml with water. The mixtures were than incubated at 37° C. for 2 h and 4 h. After centrifugation (3000 g, 5 min) and filtration the samples were analysed by HPLC.
as §1

Data set [8] concerns Lactobacillus johnsonii (CNCM I-1225). In words: Treatment of coffee extracts with bacteria cells (L. johnsonii), HPLC. As to the method: as §1, §2, §3
The next data set has as its system Chlorogenate esterase. In words: Incubation of coffee extracts with chlorogenate esterase, HPLC. Format: biochemical, Aspergillus japonicus. As to the method: as §1
Chlorogenate esterase (24 U/g), derived from Aspergillus japonicus (Kikkoman, Japan). Tannase from Aspergillus oryzae (Kikkoman, Japan) Preparation of Bacteria Cells
A solution of chlorogenate esterase (25 mg) in 200 μl phosphate buffer (pH 7.0) was added to 800 μl of a coffee solution (3%). The mixture was then incubated at 37° C. for 4 h, 16 h and 24 h. After reaction time, the enzymatic activity was stopped by heat treatment (3 min, 90° C.) and the mixture was filtered before analysis.

Consider 2 compounds from patent publication US8481028B2, “Compositions for preparing a coffee beverage comprising hydrolysed chlorogenic acid” (Nestec S.A., priority 2008, dated 2013).

With `O=C(/C=C/c1ccc(O)c(O)c1)O[C@@H]1C[C@@](O)(C(=O)O)C[C@@H](O)[C@@H]1O` [5-CQA, 5-caffeoyl quinic acid], the “% hydrolysis of 5-CQA (% hydrolysed of total 5-CQA present in the samples)” value in data set [1] was 48%.

With feruloyl quinic acids [FQA], the “% relative to untreated control at t = 0” value came to 54% in [2] (NESCAFE PROTECT + Bifidobacterium lactis, 4 h); 23% in data set [2] (NESCAFE PROTECT + Bifidobacterium lactis, 16 h); 20% in data set [2] (NESCAFE PROTECT + Bifidobacterium lactis, 24 h); 33% in data set [2] (green coffee extract + Bifidobacterium lactis, 4 h); 12% in data set [2] (green coffee extract + Bifidobacterium lactis, 16 h); 6% in data set [2] (green coffee extract + Bifidobacterium lactis, 24 h). Further, the “% relative to untreated control at t = 0” value in data set [5] (4 h) is 79%; in [5] (6 h), 71%; in data set [5] (16 h), 48%; in [5] (24 h), 52%; in [6] (2 h), 82%; in data set [6] (6 h) it was 60%. Besides, the “% relative to untreated control at t = 0” value in data set [6] (24 h) was found to be 34%; in data set [7] (cell amount 50 μL/1 mL, 2 h), 90%; in data set [7] (cell amount 50 μL/1 mL, 4 h), 89%; in [7] (cell amount 100 μL/1 mL, 2 h), 82%; in [7] (cell amount 100 μL/1 mL, 4 h) it was 74%; in data set [7] (cell amount 350 μL/1 mL, 2 h), 61%. In addition, the “% relative to untreated control at t = 0” value in data set [7] (cell amount 350 μL/1 mL, 4 h) is on record as 53%; in data set [7] (cell amount 750 μL/1 mL, 2 h), 41%; in data set [7] (cell amount 750 μL/1 mL, 4 h) it was 37%; in data set [8] (NESCAFE PROTECT + Lactobacillus johnsonii, 4 h), 42%; in data set [8] (NESCAFE PROTECT + Lactobacillus johnsonii, 16 h) it was 21%; in data set [8] (NESCAFE PROTECT + Lactobacillus johnsonii, 24 h), 20%. Moreover, the “% relative to untreated control at t = 0” value in data set [8] (green coffee extract + Lactobacillus johnsonii, 4 h) stood at 49%; in data set [8] (green coffee extract + Lactobacillus johnsonii, 16 h) it was 15%; in data set [8] (green coffee extract + Lactobacillus johnsonii, 24 h), 15%; with Chlorogenate esterase (NESCAFE PROTECT + Chlorogenate esterase, 4 h), 54%; in the data set with Chlorogenate esterase (NESCAFE PROTECT + Chlorogenate esterase, 16 h), 15%; with Chlorogenate esterase (NESCAFE PROTECT + Chlorogenate esterase, 24 h) it was 14%. Also, the “% relative to untreated control at t = 0” value in the data set with Chlorogenate esterase (green coffee extract + Chlorogenate esterase, 4 h) was found to be 73%; in the data set with Chlorogenate esterase (green coffee extract + Chlorogenate esterase, 16 h), 24%; in the data set with Chlorogenate esterase (green coffee extract + Chlorogenate esterase, 24 h), 23%. Further, the “Concentration in % relative to untreated reference at t = 0” value in [3] (6 h, cell preparation 100 uL) is reported as 42%; in [3] (6 h, cell preparation 350 uL), 17%; in [3] (6 h, cell preparation 750 uL) it was 8%; in data set [3] (24 h, cell preparation 100 uL), 17%; in [3] (24 h, cell preparation 350 uL), 4%; in [3] (24 h, cell preparation 750 uL) it was 0%. In addition, the “Concentration in % relative to untreated reference at t = 0” value amounted to 36% in data set [4] (2 h, cell preparation 100.0 uL); 15% in [4] (2 h, cell preparation 350.0 uL); 18% in data set [4] (6 h, cell preparation 100.0 uL); 11% in data set [4] (6 h, cell preparation 350.0 uL).
